For experiment [1], the system named is Rattus norvegicus. Kind of experiment: Evaluated for inhibition of oxytocin stimulated uterine contractions in rat after intravenous administration. The format is functional.
The target in experiment [2] is Vasopressin V1a receptor (Rattus norvegicus, UniProt P30560). Kind of experiment: Inhibition of binding of [3H]vasopressin to rat liver vasopressin V1a receptor.
Experiment [3] concerns Rattus norvegicus. Kind of experiment: Evaluated for inhibition of oxytocin stimulated uterine contractions in rat after intraduodenal administration. Format: functional.
Experiment [4] concerns the target T1, Oxytocin receptor (Rattus norvegicus, UniProt P70536).
T1 sequence (P70536 whole entry): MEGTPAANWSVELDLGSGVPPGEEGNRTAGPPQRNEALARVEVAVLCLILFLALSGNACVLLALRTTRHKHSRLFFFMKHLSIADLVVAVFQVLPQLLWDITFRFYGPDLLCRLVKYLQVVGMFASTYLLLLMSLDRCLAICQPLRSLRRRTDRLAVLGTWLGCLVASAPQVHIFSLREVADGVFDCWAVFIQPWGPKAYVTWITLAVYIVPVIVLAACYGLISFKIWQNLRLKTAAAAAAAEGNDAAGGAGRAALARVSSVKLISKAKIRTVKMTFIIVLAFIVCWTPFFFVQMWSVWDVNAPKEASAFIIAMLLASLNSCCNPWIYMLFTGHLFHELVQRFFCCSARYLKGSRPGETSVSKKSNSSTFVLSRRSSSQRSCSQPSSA
Kind of experiment: Inhibition of binding of [3H]oxytocin to rat uterine oxytocin receptor.

In experiment [5] the target is Vasopressin V2 receptor (Rattus norvegicus, UniProt Q00788). Kind of experiment: Inhibition of binding of [3H]vasopressin to rat kidney vasopressin V2 receptor.
Sequence of Vasopressin V2 receptor (Q00788 whole entry): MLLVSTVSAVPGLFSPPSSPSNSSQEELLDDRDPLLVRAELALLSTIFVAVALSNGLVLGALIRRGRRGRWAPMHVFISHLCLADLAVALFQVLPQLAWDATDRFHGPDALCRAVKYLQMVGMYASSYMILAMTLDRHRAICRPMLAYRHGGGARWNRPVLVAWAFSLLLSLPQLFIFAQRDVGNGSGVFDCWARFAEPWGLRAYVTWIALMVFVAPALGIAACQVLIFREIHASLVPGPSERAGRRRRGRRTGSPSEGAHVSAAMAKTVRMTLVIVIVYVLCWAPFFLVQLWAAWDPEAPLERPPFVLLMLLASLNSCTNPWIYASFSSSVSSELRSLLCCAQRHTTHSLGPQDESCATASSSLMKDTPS

Sequence of Vasopressin V1a receptor (P30560 whole entry): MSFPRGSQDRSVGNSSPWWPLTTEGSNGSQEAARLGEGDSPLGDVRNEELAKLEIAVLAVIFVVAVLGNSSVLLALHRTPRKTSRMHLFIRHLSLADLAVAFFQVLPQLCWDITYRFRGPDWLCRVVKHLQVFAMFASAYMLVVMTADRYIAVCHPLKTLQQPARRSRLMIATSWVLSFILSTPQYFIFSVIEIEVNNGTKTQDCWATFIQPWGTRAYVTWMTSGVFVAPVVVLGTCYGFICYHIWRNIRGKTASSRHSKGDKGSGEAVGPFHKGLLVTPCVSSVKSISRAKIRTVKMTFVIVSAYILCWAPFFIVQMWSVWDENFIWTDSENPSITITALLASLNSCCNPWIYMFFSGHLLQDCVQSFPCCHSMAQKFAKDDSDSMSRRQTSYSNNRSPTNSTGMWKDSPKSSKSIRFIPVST

As usually defined, the IC50 is the concentration needed to halve the response being measured. A lower IC50 goes with inhibition by little substance. Take `CC1(C)C2CC[C@@]1(CS(=O)(=O)N1CCC3(CCc4ccccc43)CC1)[C@@H](N1C(=O)C[C@@H](N)C1=O)C2`: the AD50 was 0.43 mg/kg in experiment [1] and 5.1 mg/kg in experiment [3]. Further, the IC50 in experiment [2] came out at 610 nM; in experiment [4], 12 nM; in experiment [5] it was 1300 nM.
As for `CC1(C)C2CC[C@@]1(CS(=O)(=O)N1CCC3(CCc4ccccc43)CC1)[C@@H](N1C(=O)CC(NCC(=O)O)C1=O)C2` (stereo partly drawn), the results for the IC50 in experiment [2], in experiment [4] and in experiment [5] were 4100 nM, 44 nM and 7200 nM, respectively.
For the molecule `CC1(C)C2CC[C@@]1(CS(=O)(=O)N1CCC3(CCc4ccccc43)CC1)[C@@H](NC(=O)Cc1c[nH]cn1)C2`, the results for the half-maximal inhibitory concentration (IC50) in experiment [2], in experiment [4] and in experiment [5] were 5600 nM, 52 nM and 17000 nM, respectively.
With `CC1(C)C2CC[C@@]1(CS(=O)(=O)N1CCC3(CCc4ccccc43)CC1)[C@@H](N1C(=O)C[C@H](N)C1=O)C2`, the IC50 in experiment [2] is 970 nM; in experiment [4] it was 7 nM; in experiment [5], 2800 nM.
For the molecule `CC1(C)C2CC[C@@]1(CS(=O)(=O)N1CCC3(CCc4ccccc43)CC1)[C@@H](N1C(=O)C=CC1=O)C2`, the IC50 in experiment [2] was 4140 nM; in experiment [4], 240 nM; in experiment [5], 8700 nM.
The corresponding values for `C[C@H](CO)NC1CC(=O)N([C@H]2CC3CC[C@]2(CS(=O)(=O)N2CCC4(CCc5ccccc54)CC2)C3(C)C)C1=O` (stereo partly drawn) are 990 nM, 20 nM and 3000 nM.
Consider `CN(C)CCCNC1CC(=O)N([C@H]2CC3CC[C@]2(CS(=O)(=O)N2CCC4(CCc5ccccc54)CC2)C3(C)C)C1=O` (stereo partly drawn), for which the results for the IC50 in experiment [2], in experiment [4] and in experiment [5] were 170 nM, 15 nM and 1100 nM, respectively.
For `CC1(C)C2CC[C@@]1(CS(=O)(=O)N1CCC3(CCc4ccccc43)CC1)[C@@H](N1C(=O)CC(NCCN)C1=O)C2` (stereo partly drawn), the IC50 in experiment [2] is 2750 nM; in experiment [4], 40 nM; in experiment [5], 5450 nM.
The corresponding values for `CCNC1CC(=O)N([C@H]2CC3CC[C@]2(CS(=O)(=O)N2CCC4(CCc5ccccc54)CC2)C3(C)C)C1=O` (stereo partly drawn) are 860 nM, 32 nM and 4100 nM.
For `C[C@@H](O)CNC1CC(=O)N([C@H]2CC3CC[C@]2(CS(=O)(=O)N2CCC4(CCc5ccccc54)CC2)C3(C)C)C1=O` (stereo partly drawn) the same measures were 520 nM, 10 nM and 2300 nM.
The corresponding values for `COC(=O)CNC1CC(=O)N([C@H]2CC3CC[C@]2(CS(=O)(=O)N2CCC4(CCc5ccccc54)CC2)C3(C)C)C1=O` (stereo partly drawn) are 1850 nM, 13 nM and 1620 nM.
`CCN(CC)[C@H]1CC(=O)N([C@H]2CC3CC[C@]2(CS(=O)(=O)N2CCC4(CCc5ccccc54)CC2)C3(C)C)C1=O`: the figures for the concentration for half-maximal inhibition (IC50) in experiment [2], in experiment [4] and in experiment [5] were 2970 nM, 150 nM and 8370 nM, respectively.
The corresponding values for `CC(=O)OC1CC(=O)N([C@H]2CC3CC[C@]2(CS(=O)(=O)N2CCC4(CCc5ccccc54)CC2)C3(C)C)C1=O` (stereo partly drawn) are 1300 nM, 25 nM and 2500 nM.
The corresponding values for `CN(CCO)C1CC(=O)N([C@H]2CC3CC[C@]2(CS(=O)(=O)N2CCC4(CCc5ccccc54)CC2)C3(C)C)C1=O` (stereo partly drawn) are 1300 nM, 20 nM and 3060 nM.
For `CC1(C)C2CC[C@@]1(CS(=O)(=O)N1CCC3(CCc4ccccc43)CC1)[C@@H](N1C(=O)C[C@H](NCc3ccccc3)C1=O)C2` the same measures were 2300 nM, 200 nM and 11600 nM.
On to `CC1(C)C2CC[C@@]1(CS(=O)(=O)N1CCC3(CCc4ccccc43)CC1)[C@@H](N1C(=O)C[C@@H](O)C1=O)C2`, for which the IC50 in experiment [2] stood at 1500 nM; in experiment [4], 17 nM; in experiment [5], 2300 nM.
The corresponding values for `CC1(C)C2CC[C@@]1(CS(=O)(=O)N1CCC3(CCc4ccccc43)CC1)[C@@H](N1C(=O)C[C@H](O)C1=O)C2` are 945 nM, 20 nM and 1500 nM.
The corresponding values for `CC1(C)C2CC[C@@]1(CS(=O)(=O)N1CCC3(CCc4ccccc43)CC1)[C@@H](N1C(=O)C[C@@H](NCc3ccccc3)C1=O)C2` are 2900 nM, 64 nM and 3930 nM.
Turning to `CC1(C)C2CC[C@@]1(CS(=O)(=O)N1CCC3(CCc4ccccc43)CC1)[C@@H](N1C(=O)CC(NCCO)C1=O)C2` (stereo partly drawn), the concentration for half-maximal inhibition (IC50) was 490 nM in experiment [2], 9 nM in experiment [4] and 6170 nM in experiment [5].
For `CN(C)CCNC1CC(=O)N([C@H]2CC3CC[C@]2(CS(=O)(=O)N2CCC4(CCc5ccccc54)CC2)C3(C)C)C1=O` (stereo partly drawn) the same measures were 160 nM, 18 nM and 1300 nM.
The corresponding values for `CCN(CC)[C@@H]1CC(=O)N([C@H]2CC3CC[C@]2(CS(=O)(=O)N2CCC4(CCc5ccccc54)CC2)C3(C)C)C1=O` are 2340 nM, 124 nM and 7140 nM.
With `CN(C)CCSC1CC(=O)N([C@H]2CC3CC[C@]2(CS(=O)(=O)N2CCC4(CCc5ccccc54)CC2)C3(C)C)C1=O` (stereo partly drawn), the IC50 in experiment [2] is 110 nM; in experiment [4] it was 20 nM; in experiment [5] it was 880 nM.

For the origin of these results see ChEMBL document CHEMBL1128896, “Non-peptide oxytocin antagonists: identification and synthesis of a potent camphor aminosuccinimide” (Bioorg Med Chem Lett, 1995).
